{"source": "paper PMC10141580", "about": "“Cyclic Dichalcogenides Extend the Reach of Bioreductive Prodrugs to Harness Thiol/Disulfide Oxidoreductases: Applications to seco-Duocarmycins Targeting the Thioredoxin System” (ACS Central Science, 2023)", "key": {"[1]": {"system": "A549 cells", "test": "Resazurin cytotoxicity assay, A549, 72 h", "details": "read-out: IC50(nM): A549"}, "[2]": {"system": "NCI-60 standardized human tumor cell line panel", "test": "cells", "format": "cell-based", "details": "AZI sheet, read-out: GI50"}, "[3]": {"system": "HeLa-HRE cells", "test": "Resazurin cytotoxicity assay, HeLa-HRE, 48 h", "details": "for IC50(HeLa)/IC50(A549): ratio HeLa vs A549"}, "[4]": {"system": "Balb/c mice", "test": "Single-dose toxicity study", "format": "in vivo", "details": "week following treatment"}, "[5]": {"system": "mouse", "test": "Tolerability for repeated dose administration in vivo (summary)", "details": "repeated dose administration"}, "[6]": {"test": "In vivo plasma pharmacokinetics", "details": "Balb/c mice, i.v. 5 mg/kg"}, "[7]": {"system": "Balb/c mice", "test": "Moderate repeated dosing tolerability study", "format": "in vivo"}, "[8]": {"system": "4T1 murine breast cancer", "test": "4T1 orthotopic breast cancer efficacy study", "format": "in vivo", "details": "4T1 in Balb/c mice; CBI prodrugs 3 mg/kg", "text": "We then moved to in vivo anticancer efficacy trials of these prodrugs. […] As one model we chose the syngeneic murine breast cancer 4T1, implanted orthotopically (at the native tissue site) into the fat pad of immunocompetent Balb/c mice (i.e., offering a realistic immune system and tumor microenvironment). This model gives rapid, aggressive tumor growth.[52] As a second model, we chose to xenograft human BxPC-3 pancreatic adenocarcinoma cells into immunodeficient hosts. This is a slower-growing model, with low metastasis, that can be more resistant to traditional antimitotic therapy.[53],[54] Mice were implanted, randomized once tumors reached 100–150 mm^3 volume, and treated once or twice weekly with prodrug or control compounds typically at 3 mg/kg (8–12 animals per condition, Figure 10a). Tumors were measured by caliper during the assay and weighed at termination.\n7. 2. in vivo efficacy mouse studies\n4T1 efficacy study BxPC-3 efficacy study a Absolute tumour volumes b Absolute tumour volumes […]\ndays after tumor implantation days after tumor implantation c Relative tumour volumes d Relative tumour volumes […]\ne RTV! fi\"al day of followu# f ex viv tumour weights g RTV! fi\"al day of followu# h ex viv tumour weights (. mice remain in all *roups) (for animals left at day 31)(all *roups have statistical power)(day \"2/ all animals left) […]\nvehicle(1x)(1x)(1x) (2x)(2x) […]\nP-##\"0-#$%-&'%P-!!\"0-#$%-&'%P-!!\"0-#$%-()%P-!!\"0-#$%-&'% %rinotecan %rinotecan P-##\"0-#$%-&'%P-!!\"0-#$%-()%P-!!\"0-#$%-&'%P-!!\"0-#$%-&'% P-!!\"0-#$%-&'% P-!!\"0-#$%-&'% […]\ni Body weights $ Body weights […]\nimplant in Balb/c mice, 8 mice per group; (b, d,g,h,j): BxPC-3 subcutaneous xenograft in NMRi mice, 8 mice per […]\ntreatment (m e d ia n); (e,g) in vivo caliper measurement of relative tum or volumes at final day of followup [last day when all mice in all groups remain in the study] […]\ntumor weights at termination of study (only mice not terminated on ethical grounds before the indicated days were harvested); (i,j) Bodyweights (means).\n(BxPC-3 study); dotted vertical lines indicate days of [potential] treatment."}, "[9]": {"system": "Balb/c mice with 4T1 tumors", "test": "4T1-bearing tolerability study", "details": "10 mg/kg"}}, "note": "Like-named read-outs stand apart in the source and are kept apart here."}
{"smiles": "O=C(c1cc2cc(OCCCN3CCC3)ccc2[nH]1)N1C[C@@H](CCl)c2c1cc(OCc1ccccc1)c1ccccc21", "note": "[OBn-CBI-AZI]", "values": [{"measurement": "IC50", "setting": "[1]", "result": 420, "unit": "nM"}, {"measurement": "GI50", "setting": "[2]; 786-0", "result": 270, "unit": "nM"}, {"measurement": "GI50", "setting": "[2]; A498", "result": 380, "unit": "nM"}, {"measurement": "GI50", "setting": "[2]; A549/ATCC", "result": 160, "unit": "nM"}, {"measurement": "GI50", "setting": "[2]; ACHN", "result": 35, "unit": "nM"}, {"measurement": "GI50", "setting": "[2]; CAKI-1", "result": 190, "unit": "nM"}, {"measurement": "GI50", "setting": "[2]; CCRF-CEM", "result": 410, "unit": "nM"}, {"measurement": "GI50", "setting": "[2]; COLO 205", "result": 280, "unit": "nM"}, {"measurement": "GI50", "setting": "[2]; EKVX", "result": 370, "unit": "nM"}, {"measurement": "GI50", "setting": "[2]; HCC-2998", "result": 320, "unit": "nM"}, {"measurement": "GI50", "setting": "[2]; HCT-15", "result": 130, "unit": "nM"}, {"measurement": "GI50", "setting": "[2]; HCT-116", "result": 640, "unit": "nM"}, {"measurement": "GI50", "setting": "[2]; HL-60(TB)", "result": 440, "unit": "nM"}, {"measurement": "GI50", "setting": "[2]; HOP-62", "result": 140, "unit": "nM"}, {"measurement": "GI50", "setting": "[2]; HOP-92", "result": 500, "unit": "nM"}, {"measurement": "GI50", "setting": "[2]; HT29", "result": 270, "unit": "nM"}, {"measurement": "GI50", "setting": "[2]; IGROV1", "result": 190, "unit": "nM"}, {"measurement": "GI50", "setting": "[2]; K-562", "result": 250, "unit": "nM"}, {"measurement": "GI50", "setting": "[2]; KM12", "result": 810, "unit": "nM"}, {"measurement": "GI50", "setting": "[2]; LOX IMVI", "result": 56, "unit": "nM"}, {"measurement": "GI50", "setting": "[2]; M14", "result": 210, "unit": "nM"}, {"measurement": "GI50", "setting": "[2]; MALME-3M", "result": 280, "unit": "nM"}, {"measurement": "GI50", "setting": "[2]; MDA-MB-231", "result": 3070, "unit": "nM"}, {"measurement": "GI50", "setting": "[2]; MDA-MB-435", "result": 330, "unit": "nM"}, {"measurement": "GI50", "setting": "[2]; MOLT-4", "result": 270, "unit": "nM"}, {"measurement": "GI50", "setting": "[2]; NCI-H23", "result": 73, "unit": "nM"}, {"measurement": "GI50", "setting": "[2]; NCI-H226", "result": 210, "unit": "nM"}, {"measurement": "GI50", "setting": "[2]; NCI-H460", "result": 17, "unit": "nM"}, {"measurement": "GI50", "setting": "[2]; NCI-H522", "result": 380, "unit": "nM"}, {"measurement": "GI50", "setting": "[2]; OVCAR-3", "result": 500, "unit": "nM"}, {"measurement": "GI50", "setting": "[2]; OVCAR-4", "result": 540, "unit": "nM"}, {"measurement": "GI50", "setting": "[2]; OVCAR-5", "result": 340, "unit": "nM"}, {"measurement": "GI50", "setting": "[2]; OVCAR-8", "result": 240, "unit": "nM"}, {"measurement": "GI50", "setting": "[2]; RPMI-8226", "result": 500, "unit": "nM"}, {"measurement": "GI50", "setting": "[2]; RXF 393", "result": 230, "unit": "nM"}, {"measurement": "GI50", "setting": "[2]; SF-268", "result": 330, "unit": "nM"}, {"measurement": "GI50", "setting": "[2]; SF-295", "result": 46, "unit": "nM"}, {"measurement": "GI50", "setting": "[2]; SF-539", "result": 290, "unit": "nM"}, {"measurement": "GI50", "setting": "[2]; SK-MEL-2", "result": 370, "unit": "nM"}, {"measurement": "GI50", "setting": "[2]; SK-MEL-5", "result": 270, "unit": "nM"}, {"measurement": "GI50", "setting": "[2]; SK-MEL-28", "result": 330, "unit": "nM"}, {"measurement": "GI50", "setting": "[2]; SK-OV-3", "result": 450, "unit": "nM"}, {"measurement": "GI50", "setting": "[2]; SN12C", "result": 360, "unit": "nM"}, {"measurement": "GI50", "setting": "[2]; SNB-19", "result": 330, "unit": "nM"}, {"measurement": "GI50", "setting": "[2]; SR", "result": 44, "unit": "nM"}, {"measurement": "GI50", "setting": "[2]; SW-620", "result": 260, "unit": "nM"}, {"measurement": "GI50", "setting": "[2]; TK-10", "result": 560, "unit": "nM"}, {"measurement": "GI50", "setting": "[2]; U251", "result": 61, "unit": "nM"}, {"measurement": "GI50", "setting": "[2]; UACC-62", "result": 62, "unit": "nM"}, {"measurement": "GI50", "setting": "[2]; UACC-257", "result": 390, "unit": "nM"}, {"measurement": "GI50", "setting": "[2]; UO-31", "result": 260, "unit": "nM"}, {"measurement": "IC50", "setting": "[3]; initial screening, A549 and HeLa cell lines", "result": "> 1000", "unit": "nM"}, {"measurement": "IC50(HeLa)/IC50(A549)", "setting": "[3]", "result": 1.8}, {"measurement": "IC50", "setting": "[3]; read-out: IC50(nM): HeLa, HeLa, 48 h", "result": 750, "unit": "nM"}, {"measurement": "outcome at 10 mg/kg single dose", "setting": "[4]", "result": "not lethal"}]}
{"smiles": "CN(C(=O)Oc1cc2c(c3ccccc13)[C@H](CCl)CN2C(=O)c1cc2cc(OCCCN3CCC3)ccc2[nH]1)[C@H]1CCSSC1", "note": "[SS60-CBI-AZI]", "values": [{"measurement": "IC50", "setting": "[1]; Homo sapiens", "result": 120, "unit": "nM"}, {"measurement": "IC50", "setting": "[3]; Homo sapiens, HeLa, 48 h, read-out: IC50(nM): HeLa", "result": 96, "unit": "nM"}, {"measurement": "IC50(HeLa)/IC50(A549)", "setting": "[3]", "result": 0.8}, {"measurement": "remarks", "setting": "[5]", "result": "adverse effects"}, {"measurement": "released cargo in plasma", "setting": "[6]", "result": "no released HO-CBI-AZI, or activated cyclopropane, or adducts, were detected"}, {"measurement": "half-life", "setting": "[6]; mouse, plasma, iv, HPLC-MS/MS", "result": "~20", "unit": "min"}, {"measurement": "outcome of repeated dosing at 3 mg/kg", "setting": "[7]; once weekly", "result": "significant loss of body weight"}, {"measurement": "outcome of repeated dosing at 1 mg/kg", "setting": "[7]; treated twice a week", "result": "tolerated"}]}
{"smiles": "CCc1c2c(nc3ccc(OC(=O)N4CCC(N5CCCCC5)CC4)cc13)-c1cc3c(c(=O)n1C2)COC(=O)[C@]3(O)CC", "note": "[irinotecan, reference compound]", "values": [{"measurement": "effect on tumor growth", "setting": "[8]", "result": "expected tumor-slowing effect"}, {"measurement": "effect on tumor growth", "setting": "[9]", "result": "failed to slow tumor growth"}]}
